Where two headings read alike, the source gives them in different places.
Assays:
[1] = Trans-enterocyte transport of CA in Caco-2 cell monolayer; assay type: in vitro ADME, human; conditions: human
Method: (§1) Caco-2 were cultured in EMEM complete medium containing 10% FBS, 1% non-essential amino acids, and 1% penicillin-streptomycin double antibody, and the culture conditions were 37 °C, 5% CO2, in a constant temperature incubator [16]. We first established non-toxic dose ranges of CA in Caco-2 cells using MTT assay. Dimethylsulfoxide (DMSO) was used as the vehicle to deliver CA to the cells. The final concentration of DMSO in all experiments was 0.1% (v/v) in cell culture media. Caco-2 cells were seeded in a 96-well plate at a cell density of 5 × 10^4 cells/mL per well, and cultured under 5% CO2 and 37 °C for 24 h. A quantity of 200 μL of medium was added to each well to obtain a series of CA solutions (concentrations of 25, 50, 75, and 100 μmoL). After 48 h of treatment, Caco-2 cells were subjected to the MTT assay as described previously. For the transport study, Caco-2 cells were seeded on the apical compartment (AP) of 12-well Transwell plates at a density of 2 × 10^5 cells/mL. The complete culture medium was added into basolateral (BL) and AP compartments. The basolateral medium was replaced every other day.
(§2) CA was dissolved in HBSS solution at 50, 75, and 100 μM. The HBSS solution containing CA combined with 0.5% Tween 80, 5 mmol/L EDTA or 5% PEG 400 was prepared. The cumulative migration (Qr), apparent permeability coefficient (Papp), and the Papp value of bi-direction transport of CA were calculated according to formulas.
The 0.5 mL […] containing different concentrations of CA was added to the AP side of the 12-well Transwell plate, and 1.5 mL HBSS solution was added to the BL side. At 0, 0.5, 1, 1.5, 2, 2.5, and 3 h, 0.2 mL medium was taken from the BL side and stored at −80 °C. The TEER value of each Transwell chamber was measured.
(§3) The cryopreserved Transwell samples were transferred to a 15 mL centrifuge tube, and any remaining liquid was fully washed using 1 mL of 50% methanol solution which was also transferred to the 15 mL centrifuge tube. The mixture was vortexed for 1 min, and 6 mL of ethyl acetate solution was added to the tube and vortexed for another 2 min. The mixture was centrifuged at 6000 rpm/min at 4 °C for 10 min. The supernatant was dried under vacuum, dissolved in 5% phosphoric acid methanol solution, and filtered through a 0.22 μm microporous membrane. The concentration of CA was determined by HPLC as described above.

[2] = MTT assay, non-toxic dose range of CA; assay type: cell-based; conditions: human, Caco-2 cells, CA 100 μM, vs untreated cells, read-out: cell viability
Method: as §1

Caco-2 cell monolayer = assay: Effect of verapamil, PEG 400 and EDTA on trans-enterocyte transport of CA; assay type: in vitro ADME, human
Method: as §2
The 0.5 mL HBSS solution containing CA (50, 75, and 100 μM) combined with 100 μmoL/L verapamil, 5% PEG 400, or 5 mmol/L EDTA was added to the AP side of the Transwell plate, and 1.5 mL HBSS solution was added to the BL side. The effect of verapamil, Tween 80, PEG 400, and EDTA on the trans-enterocyte of CA was investigated according to the method described above. The TEER value of each Transwell chamber was measured.
as §3

[3] = Caco-2, CA 75 μM, Average of 0.5-3.0 h
[4] = Caco-2, CA 100 μM, Average of 0.5-3.0 h

## CC(C)c1cc2c(c(O)c1O)[C@@]1(C(=O)O)CCCC(C)(C)[C@@H]1CC2 [CA, Carnosic acid]
[1]; Caco-2, CA 75 μM, 2.5 h, CA alone, read-out: Papp AP to BL
  Papp A→B at 2.5 h, 75 μM: 0.83 ± 0.01 ×10⁻⁶ cm/s
[1]; Caco-2, CA 75 μM, 2.5 h, read-out: Papp AP-BL
  Papp A→B at 2.5 h, 75 μM: 0.83 ± 0.01 ×10⁻⁶ cm/s
[1]; Caco-2, CA 75 μM, 3.0 h
  Papp B→A at 3 h, 75 μM: 0.38 ± 0.03 ×10⁻⁶ cm/s
  efflux ratio at 3 h, 75 μM: 0.61
[1]; Caco-2, CA 75 μM, 3.0 h, CA alone, read-out: Papp AP to BL
  Papp A→B at 3 h, 75 μM: 0.62 ± 0.01 ×10⁻⁶ cm/s
[1]; Caco-2, CA 75 μM, 3.0 h, read-out: Papp AP-BL
  Papp A→B at 3 h, 75 μM: 0.62 ± 0.01 ×10⁻⁶ cm/s
[1]; [3]
  Papp B→A at 75 μM: 0.66 ± 0.06 ×10⁻⁶ cm/s
  efflux ratio at 75 μM: 0.63
[1]; Caco-2, CA 75 μM, Average of 0.5-3.0 h, CA alone, read-out: Papp AP to BL
  Papp A→B at 75 μM: 1.04 ± 0.02 ×10⁻⁶ cm/s
[1]; Caco-2, CA 75 μM, Average of 0.5-3.0 h, read-out: Papp AP-BL
  Papp A→B at 75 μM: 1.04 ± 0.05 ×10⁻⁶ cm/s
[1]; Caco-2, CA 100 μM, 0.5 h
  Papp B→A at 0.5 h, 100 μM: 0.39 ± 0.03 ×10⁻⁶ cm/s
  efflux ratio at 0.5 h, 100 μM: 0.35
[1]; Caco-2, CA 100 μM, 0.5 h, CA alone, read-out: Papp AP to BL
  Papp A→B at 0.5 h, 100 μM: 1.1 ± 0.1 ×10⁻⁶ cm/s
[1]; Caco-2, CA 100 μM, 0.5 h, read-out: Papp AP-BL
  Papp A→B at 0.5 h, 100 μM: 1.1 ± 0.1 ×10⁻⁶ cm/s
[1]; Caco-2, CA 100 μM, 1.0 h
  Papp B→A at 1 h, 100 μM: 0.56 ± 0.04 ×10⁻⁶ cm/s
  efflux ratio at 1 h, 100 μM: 0.42
[1]; Caco-2, CA 100 μM, 1.0 h, CA alone, read-out: Papp AP to BL
  Papp A→B at 1 h, 100 μM: 1.32 ± 0.09 ×10⁻⁶ cm/s
[1]; Caco-2, CA 100 μM, 1.0 h, read-out: Papp AP-BL
  Papp A→B at 1 h, 100 μM: 1.32 ± 0.09 ×10⁻⁶ cm/s
[1]; Caco-2, CA 100 μM, 1.5 h
  Papp B→A at 1.5 h, 100 μM: 2.53 ± 0.03 ×10⁻⁶ cm/s
  efflux ratio at 1.5 h, 100 μM: 1.07
[1]; Caco-2, CA 100 μM, 1.5 h, CA alone, read-out: Papp AP to BL
  Papp A→B at 1.5 h, 100 μM: 2.36 ± 0.08 ×10⁻⁶ cm/s
[1]; Caco-2, CA 100 μM, 1.5 h, read-out: Papp AP-BL
  Papp A→B at 1.5 h, 100 μM: 2.36 ± 0.08 ×10⁻⁶ cm/s
[1]; Caco-2, CA 100 μM, 2.0 h
  Papp B→A at 2 h, 100 μM: 1.33 ± 0.05 ×10⁻⁶ cm/s
[1]; Caco-2, CA 100 μM, 2.0 h, CA alone, read-out: Papp AP to BL
  Papp A→B at 2 h, 100 μM: 0.87 ± 0.02 ×10⁻⁶ cm/s
[1]; Caco-2, CA 100 μM, 2.0 h, read-out: Efflux Ratio
  efflux ratio at 2 h, 100 μM: 1.52
[1]; Caco-2, CA 100 μM, 2.0 h, read-out: Papp AP-BL
  Papp A→B at 2 h, 100 μM: 0.87 ± 0.02 ×10⁻⁶ cm/s
[1]; Caco-2, CA 100 μM, 2.5 h
  Papp B→A at 2.5 h, 100 μM: 1.45 ± 0.01 ×10⁻⁶ cm/s
  efflux ratio at 2.5 h, 100 μM: 1.7
[1]; Caco-2, CA 100 μM, 2.5 h, CA alone, read-out: Papp AP to BL
  Papp A→B at 2.5 h, 100 μM: 0.85 ± 0.05 ×10⁻⁶ cm/s
[1]; Caco-2, CA 100 μM, 2.5 h, read-out: Papp AP-BL
  Papp A→B at 2.5 h, 100 μM: 0.85 ± 0.05 ×10⁻⁶ cm/s
[1]; Caco-2, CA 100 μM, 3.0 h
  Papp B→A at 3 h, 100 μM: 1.23 ± 0.03 ×10⁻⁶ cm/s
  efflux ratio at 3 h, 100 μM: 1.53
[1]; Caco-2, CA 100 μM, 3.0 h, CA alone, read-out: Papp AP to BL
  Papp A→B at 3 h, 100 μM: 0.8 ± 0.09 ×10⁻⁶ cm/s
[1]; Caco-2, CA 100 μM, 3.0 h, read-out: Papp AP-BL
  Papp A→B at 3 h, 100 μM: 0.8 ± 0.09 ×10⁻⁶ cm/s
[1]; [4]
  Papp B→A at 100 μM: 1.24 ± 0.04 ×10⁻⁶ cm/s
  efflux ratio at 100 μM: 1.03
[1]; Caco-2, CA 100 μM, Average of 0.5-3.0 h, CA alone, read-out: Papp AP to BL
  Papp A→B at 100 μM: 1.21 ± 0.03 ×10⁻⁶ cm/s
[1]; Caco-2, CA 100 μM, Average of 0.5-3.0 h, read-out: Papp AP-BL
  Papp A→B at 100 μM: 1.2 ± 0.07 ×10⁻⁶ cm/s
[1]; Caco-2, CA 100 μM, after 2-hour incubation, read-out: efflux ratios
  efflux ratio at 2 h, 100 μM: 1.52 to 1.7
[1]; Caco-2, CA 50 and 75 μM, except 50 μM after 3-hour incubation, read-out: efflux ratios
  efflux ratio: < 1
[1]; Caco-2, CA 75 μM, 1.0 h
  Papp A→B at 1 h, 75 μM: 1.08 ± 0.04 ×10⁻⁶ cm/s
  Papp B→A at 1 h, 75 μM: 0.86 ± 0.05 ×10⁻⁶ cm/s
  efflux ratio at 1 h, 75 μM: 0.79
[1]; Caco-2, CA 50–100 μM, 0.5-3 h, read-out: Papp values in both the AP-BL and BL-AP directions
  Papp: 0.12 to 2.53 ×10⁻⁶ cm/s
[2]
  viability at 48 h, 100 μM: > 90%
Caco-2 cell monolayer; 5 mmol/L EDTA
  increase of Papp (AP to BL) in the presence of EDTA vs control: ~ 1.5 fold
Caco-2 cell monolayer; from effect of verapamil and PEG 400 on Papp (AP to BL)
  active efflux / P-gp substrate status: could be a substrate of P-gp

— paper PMC8698657, “Absorption and Transport Characteristics and Mechanisms of Carnosic Acid” (Biology, 2021)
